How the values were obtained:
[1] = molecular target: cGMP-specific 3',5'-cyclic phosphodiesterase (Homo sapiens) (UniProt O76074); assay: Inhibition of human recombinant PDE5A using […] as substrate at 1 uM after 30 mins by scintillation proximity assay
[2] = Metabolic stability in cynomolgus monkey liver microsomes incubated for 10 mins prior to NADPH addition measured after 60 mins by LC/MS/MS analysis; format: ADME, Macaca fascicularis; settings: read-out: Stability
[3] = Cmax in Sprague-Dawley rat at 10 mg/kg, po; format: ADME, organism-based; set-up: dose 10 mg/kg, route oral; settings: in vivo
Rattus norvegicus [4] = assay: Antipsychotic activity in Sprague-Dawley rat psychosis model assessed as reversal of MK-801-induced locomotion at 1 mg/kg, po administered 2 hrs prior to MK-801 challenge measured every 5 mins for 1 hr starting 15 mins post MK-801 injection relative to vehicle-treated control; format: functional
Rattus norvegicus [5] = assay: Antipsychotic activity in Sprague-Dawley rat psychosis model assessed as reversal of MK-801-induced stereotypy at 1 mg/kg, po administered 2 hrs prior to MK-801 challenge measured every 5 mins for 1 hr starting 15 mins post MK-801 injection relative to vehicle-treated control; format: functional
Mus musculus = assay: Ratio of ED50 for po dosed Swiss albino mouse assessed as inhibition of apomorphine-induced sniffing behavior administered 30 mins prior to apomorphine challenge to ED50 for po dosed Swiss albino mouse assessed as inhibition of apomorphine-induced climbing behavior administered 30 mins prior to apomorphine challenge; format: functional

## Cn1cc(-c2ccc(Oc3nccnc3-c3ccncc3)cc2)c2ncccc21
[1]
  inhibition: 0.8%
[2]
  remaining at 1 h: 70.5%
[3]
  Cmax: 27600 ng/mL
Rattus norvegicus [4]
  Activity: 27%
Rattus norvegicus [5]
  Activity: 95%
Mus musculus
  Ratio ED50: 10.63

Source: ChEMBL document CHEMBL3352660, “Design, synthesis and pharmacological evaluation of novel polycyclic heteroarene ethers as PDE10A inhibitors: part II” (Bioorg Med Chem Lett, 2014)
